Laboratory results from patent publication US20090012011A1, “Novel Compounds” (SmithKline Beecham Corporation, priority 2006, published 2009).

What was measured:
TRPV4 channel receptors [1] = target: T1, TRPV4 channel receptors (Homo sapiens, UniProt Q9HBA0); assay: Ca2+ influx, Fura-2 fluorescence on FlexStation, human articular chondrocytes; format: cell-based
T1 construct: obtained using this method in human articular chondrocytes; endogenous in cells; host or cells: human articular chondrocytes
T1 sequence (Q9HBA0 whole entry): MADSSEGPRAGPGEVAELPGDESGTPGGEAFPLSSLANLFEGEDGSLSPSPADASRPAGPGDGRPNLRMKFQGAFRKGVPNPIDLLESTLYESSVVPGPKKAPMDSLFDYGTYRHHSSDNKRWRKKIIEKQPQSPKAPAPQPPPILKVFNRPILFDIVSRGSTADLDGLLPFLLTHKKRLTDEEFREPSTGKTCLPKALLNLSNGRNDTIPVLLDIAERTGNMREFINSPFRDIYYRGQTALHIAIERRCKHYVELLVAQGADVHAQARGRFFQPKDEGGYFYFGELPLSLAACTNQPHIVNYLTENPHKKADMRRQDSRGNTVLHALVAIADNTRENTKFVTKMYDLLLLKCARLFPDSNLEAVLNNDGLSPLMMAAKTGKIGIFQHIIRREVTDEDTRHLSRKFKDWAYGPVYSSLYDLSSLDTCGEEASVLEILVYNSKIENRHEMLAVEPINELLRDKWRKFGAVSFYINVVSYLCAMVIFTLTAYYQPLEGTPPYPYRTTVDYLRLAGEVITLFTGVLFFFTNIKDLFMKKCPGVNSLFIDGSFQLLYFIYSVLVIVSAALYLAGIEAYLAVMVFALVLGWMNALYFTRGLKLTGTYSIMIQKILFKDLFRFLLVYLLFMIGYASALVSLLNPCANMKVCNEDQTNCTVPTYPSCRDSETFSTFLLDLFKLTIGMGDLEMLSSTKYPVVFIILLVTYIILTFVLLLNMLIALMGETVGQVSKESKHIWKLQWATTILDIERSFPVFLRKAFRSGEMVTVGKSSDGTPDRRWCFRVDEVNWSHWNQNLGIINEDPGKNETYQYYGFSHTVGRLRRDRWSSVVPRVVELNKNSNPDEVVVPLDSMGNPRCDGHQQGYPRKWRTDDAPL
Text: (§1) Ca^2+ influx mediated through TRPV4 channel receptors can be measured using articular chondrocytes from such species as, but not limited to, human, rat, canine, rabbit, monkey, and bovine, using standard techniques in the art such as, but not limited to, Fura-2 (Invitrogen/Molecular Probes, Eugene, Oreg.) fluorescence using a FlexStation (manufactured by Molecular Devices, Sunnyvale, Calif.). Table 1 lists biological data for several representative compounds obtained using this method in bovine articular chondrocytes.
Table 2 lists biological data for several representative compounds obtained using this method in human articular chondrocytes.

TRPV4 channel receptors [2] = target: T2, TRPV4 channel receptors (Bos taurus, UniProt A0A8F4X677); assay: Ca2+ influx, Fura-2 fluorescence on FlexStation, bovine articular chondrocytes; format: cell-based
T2 construct: obtained using this method in bovine articular chondrocytes; endogenous in cells; host or cells: bovine articular chondrocytes
T2 sequence (A0A8F4X677 1-871): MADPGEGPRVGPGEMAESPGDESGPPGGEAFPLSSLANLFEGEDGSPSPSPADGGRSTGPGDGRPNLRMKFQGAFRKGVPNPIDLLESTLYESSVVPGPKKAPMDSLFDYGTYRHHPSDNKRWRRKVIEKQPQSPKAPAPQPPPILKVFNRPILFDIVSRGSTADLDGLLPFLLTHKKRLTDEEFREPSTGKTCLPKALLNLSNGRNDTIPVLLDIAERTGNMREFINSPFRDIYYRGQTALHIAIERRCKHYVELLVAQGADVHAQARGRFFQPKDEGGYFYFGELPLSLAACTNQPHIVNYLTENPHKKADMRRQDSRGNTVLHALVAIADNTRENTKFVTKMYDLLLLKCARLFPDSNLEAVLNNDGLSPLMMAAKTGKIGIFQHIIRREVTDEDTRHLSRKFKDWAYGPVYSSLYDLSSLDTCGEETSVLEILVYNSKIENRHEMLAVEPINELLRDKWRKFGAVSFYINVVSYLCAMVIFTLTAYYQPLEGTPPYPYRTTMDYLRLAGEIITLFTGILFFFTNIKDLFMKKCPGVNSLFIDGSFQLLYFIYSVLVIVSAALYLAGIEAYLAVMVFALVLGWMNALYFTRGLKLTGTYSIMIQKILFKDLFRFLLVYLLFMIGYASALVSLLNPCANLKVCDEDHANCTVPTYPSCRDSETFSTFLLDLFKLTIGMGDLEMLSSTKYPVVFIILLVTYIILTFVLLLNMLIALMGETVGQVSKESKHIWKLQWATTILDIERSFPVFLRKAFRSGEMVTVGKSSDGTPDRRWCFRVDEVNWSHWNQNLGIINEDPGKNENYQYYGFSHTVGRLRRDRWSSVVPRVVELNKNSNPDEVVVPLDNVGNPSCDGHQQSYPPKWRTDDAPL
Text: as §1

| EC50 (TRPV4 channel receptors [1]) | EC50 (TRPV4 channel receptors [2]) | Structure (SMILES) |
| --- | --- | --- |
| 100 to 1000 nM | 70 to 100 nM | CC(C)C[C@H](NC(=O)c1cc2ccccc2s1)C(=O)NC[C@@H]1CN(S(=O)(=O)c2ccc(F)cc2Cl)C[C@@H]1O (single isomer, unassigned) [Example 2] |
| 30 to 90 nM | 30 to 60 nM | CC(C)C[C@H](NC(=O)c1cc2ccccc2s1)C(=O)NC[C@H]1CN(S(=O)(=O)c2ccc(Cl)cc2Cl)C[C@H]1O (single isomer, unassigned) [Example 3] |
| 1000 to 10000 nM |  | CC(C)C[C@H](NC(=O)c1cc2ccccc2s1)C(=O)NC[C@@H]1CN(S(=O)(=O)c2ccc(F)cc2C(F)(F)F)C[C@@H]1O (single isomer, unassigned) [Example 6] |
